Source: patent publication US20240197742A1, “Therapeutic Combinations of a CD19 Inhibitor and a BTK Inhibitor” (Acerta Pharma B.V., priority 2015, published 2024)
Entries after “also recorded” stand apart in the source; their conditions may differ.

Legend:
[1] = system: CYP enzymes; assay: Nonclinical CYP interaction studies; format: in vitro ADME
From the text: (§1) No unique human metabolite was identified. Preliminary evaluations of metabolism in the plasma, bile, and urine of rats, dogs, and monkeys indicated metabolic processes of oxidation, glutathione binding, and hydrolysis.

[2] = system: CD8+ T cells; assay: Cytotoxic T cell (CTL) assay; format: cell-based; conditions: 500 nM, relative to vehicle
Protocol: Without being bound by any theory, CD8^+ T cells have two primary effector functions: (1) produce large amounts of IFN-γ (which activates macrophages), and (2) cytolytic activity. […] The targets were B lymphoblasts from lipopolysaccharide (LPS) treated cultures. The assay was performed by incubating different ratios of effectors:targets for 4 hours.

[3] = system: NSCLC (KrasLA2); assay: KrasLA2 non-small cell lung cancer model; format: in vivo, mice; conditions: dosing of 15 mg/kg
From the text: The model is designed to have sporadic expression in single cells of G12D mutant Kras off its own promoter triggered by spontaneous intrachromosomal recombination. Johnson, et al. Nature 2001, 410, 1111-16. While the mutant Kras protein is expressed in a few cells in all tissues, tumor development is seen only in the lung at high penetrance.

[4] = system: primary CLL cells; assay: ADCC chromium release assay, primary CLL targets; format: cell-based, human; conditions: 1 μM; E:T 25:1; variable rituximab concentrations
Protocol: All in vitro experiments were performed in triplicate.
ADCC assays were performed as follows. Briefly, target cells (Raji or primary CLL) were labeled by incubation at 37° C. with 100 μCi ^51Cr for 4 hours prior to co-culture with NK cells. Cells were washed, enumerated, and then added in triplicate to prepared 96-well plates containing treated NK cells at an effector:target (E:T) ratio of 25:1. […] Cultures were incubated at 37° C. for 4 hours, and then centrifuged. Supernatants were harvested and ^51Cr release was measured by liquid scintillation counting. All experiments were performed in triplicate.

[5] = system: pancreatic cancer (KPC mice); assay: KPC pancreatic cancer model; format: in vivo
Protocol: The KPC mouse model recapitulates many of the molecular, histopathologic, and clinical features of human disease (Westphalen and Olive, Cancer J. 2012, 18, 502-510). Combination therapy with gemcitabine was also evaluated in this model. Mice were enrolled after identification of spontaneously appearing tumors in the pancreas that were ≥100 mm^3 (as assessed by high-resolution ultrasonography).

[6] = target: EGFR (Homo sapiens, UniProt P00533); assay: EGF receptor phosphorylation in A431 cells (phosphoflow); conditions: 10 μM; A431 human epidermoid cancer cell line
[7] = target: CYP3A4 (Homo sapiens, UniProt P08684); assay: Loss of parent drug as catalyzed by CYPs; format: in vitro ADME; conditions: in vitro
From the text: as §1

[8] = system: NK cells; assay: Antibody-dependent NK cell-mediated IFN-γ release (ELISA); format: cell-based, human; conditions: 1 μM; trastuzumab-coated (10 μg/mL) HER18, 4 hours
Protocol: Cytokine secretion was determined as follows. […] NK cells from healthy donors were enriched as described above and then added to the target cells and incubated for 4 hours at 37° C. Triplicate cultures were performed on NK cells from donors. After incubation, supernatants were harvested, centrifuged briefly, and then analyzed for interferon-γ using an enzyme-linked immunosorbent assay (ELISA) (R&D Systems, Minneapolis, MN, USA).

[9] = system: NK cells; assay: Antibody-dependent NK cell-mediated degranulation (CD107a); format: cell-based, human
Protocol: Lytic granule release was determined as follows. NK cells from healthy donors were enriched and cultured in the presence of target cells, monoclonal antibodies and test articles as described above. After 4 hours, the cultures were harvested and cells were pelleted, washed, and then stained for flow cytometry evaluation. Degranulation was evaluated via by flow cytometery by externalization of CD107a, a protein normally present on the inner leaflet of lytic granules, and gating on NK cells (CD3-CD16^+ lymphocytes). The percentage of CD107α positive NK cells was quantified by comparison with a negative control (isotype control, unstained cells/FMO). Control cultures (NK cells cultured without target cells, or NK, target cell co-cultures in the absence of appropriate monoclonal antibody) were also evaluated; all experiments were performed in triplicate.

[10] = system: KPC derived mouse pancreatic cancer cells; assay: Orthotopic pancreatic cancer model; format: in vivo; conditions: Formula (2) 15 mg/kg/BID given orally
Protocol: In this study, KPC derived mouse pancreatic cancer cells (KrasG12D;Trp53R172H;Pdx1-Cre) were injected into the pancreases.
Single cell suspensions from tumor samples. Mouse tumor tissue was collected and stored in PBS/0.1% soybean trypsin inhibitor prior to enzymatic dissociation. Samples were finely minced with a scissors and mouse tissue was transferred into DMEM containing 1.0 mg/mL collagenase IV (Gibco), 0.1% soybean trypsin inhibitor, and 50 U/ml DNase (Roche) and incubated at 37° C. for 30 min. with constant stirring while human tissue was digested in 2.0 mg/ml collagenase IV, 1.0 mg/ml hyluronidase, 0.1% soybean trypsin inhibitor, and 50 U/ml DNase for 45 minutes. Suspensions were filtered through a 100 micron filter and washed with FACS buffer (PBS/0.5% BSA/2.0 mM EDTA) prior to staining. Two million total cells were stained with antibodies as indicated. Intracellular detection of FoxP3 was achieved following permeabilization with BD Perm Buffer III (BD Biosciences) and eBioscience Fix/Perm respectively. Following surface staining, samples were acquired on a BD Fortessa and analyzed using FlowJo (Treestar) software.

[11] = system: 80 known pharmacologic targets such as G-protein-coupled receptors, nuclear receptors, proteases, and ion channels; assay: Binding assays with 80 known pharmacologic targets; conditions: screened at 10 μM
[12] = system: CD8+ T cells; assay: CD8+ T cell viability; format: cell-based; conditions: anti-TCR and anti-CD28 coated wells, neutral conditions, 4 days
Protocol: Total T cells were plated on anti-TCR and anti-CD28 coated wells in the presence of both BTK inhibitors. Neutral culture conditions were used that will not polarize T cells to a helper lineage. […] Statistical significance was calculated using the Mann Whitney T-test.

[13] = system: ID8 ovarian cancer; assay: ID8 syngeneic orthotropic ovarian cancer murine model; format: in vivo, mouse; conditions: 15 mg/kg/BID given orally
From the text: Human ovarian cancer models, including the ID8 syngeneic orthotropic ovarian cancer model and other animal models, are described in Fong and Kakar, J. Ovarian Res. 2009, 2, 12; Greenaway, et al., Gynecol. Oncol. 2008, 108, 385-94; Urzua, et al., Tumour Biol. 2005, 26, 236-44; Janat-Amsbury, et al., Anticancer Res. 2006, 26, 3223-28; Janat-Amsbury, et al., Anticancer Res. 2006, 26, 2785-89. […] The results of the study are shown in FIG. 13, FIG. 14, FIG. 15, FIG. 16, FIG. 17, FIG. 18, FIG. 19, and FIG. 20.

[14] = Formula (2) 15 mg/kg BID orally

Chain of EGFR (P00533 25-1210): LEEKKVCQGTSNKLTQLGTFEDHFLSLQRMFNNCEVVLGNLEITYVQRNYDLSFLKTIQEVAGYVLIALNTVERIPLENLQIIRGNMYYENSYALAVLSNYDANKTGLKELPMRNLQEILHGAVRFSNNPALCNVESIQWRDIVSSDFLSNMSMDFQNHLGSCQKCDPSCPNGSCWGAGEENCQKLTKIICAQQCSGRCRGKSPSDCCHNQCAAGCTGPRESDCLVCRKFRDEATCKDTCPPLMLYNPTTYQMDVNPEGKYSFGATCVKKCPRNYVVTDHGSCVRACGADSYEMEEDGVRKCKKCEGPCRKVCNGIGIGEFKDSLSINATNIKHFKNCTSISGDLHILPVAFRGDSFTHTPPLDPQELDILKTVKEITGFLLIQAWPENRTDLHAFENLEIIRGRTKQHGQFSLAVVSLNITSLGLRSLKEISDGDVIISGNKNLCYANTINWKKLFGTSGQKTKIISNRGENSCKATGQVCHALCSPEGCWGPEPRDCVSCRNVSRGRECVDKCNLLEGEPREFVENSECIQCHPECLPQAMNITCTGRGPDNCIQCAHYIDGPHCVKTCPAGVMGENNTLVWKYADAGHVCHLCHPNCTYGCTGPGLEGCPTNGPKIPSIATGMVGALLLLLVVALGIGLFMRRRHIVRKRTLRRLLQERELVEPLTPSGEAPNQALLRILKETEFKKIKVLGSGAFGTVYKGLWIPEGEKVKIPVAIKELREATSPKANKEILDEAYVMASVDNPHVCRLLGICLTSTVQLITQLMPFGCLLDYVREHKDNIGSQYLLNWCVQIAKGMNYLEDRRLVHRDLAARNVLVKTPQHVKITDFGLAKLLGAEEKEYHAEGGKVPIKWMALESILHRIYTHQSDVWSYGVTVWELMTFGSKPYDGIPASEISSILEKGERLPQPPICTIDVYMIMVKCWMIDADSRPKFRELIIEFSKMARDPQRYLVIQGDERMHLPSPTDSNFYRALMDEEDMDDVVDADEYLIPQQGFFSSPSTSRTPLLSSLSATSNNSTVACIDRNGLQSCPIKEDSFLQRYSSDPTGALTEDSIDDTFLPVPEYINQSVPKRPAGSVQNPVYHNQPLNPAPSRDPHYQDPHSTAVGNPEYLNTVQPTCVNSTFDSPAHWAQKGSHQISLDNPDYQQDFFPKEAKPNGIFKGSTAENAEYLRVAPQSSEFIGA
Chain of CYP3A4 (P08684 whole entry): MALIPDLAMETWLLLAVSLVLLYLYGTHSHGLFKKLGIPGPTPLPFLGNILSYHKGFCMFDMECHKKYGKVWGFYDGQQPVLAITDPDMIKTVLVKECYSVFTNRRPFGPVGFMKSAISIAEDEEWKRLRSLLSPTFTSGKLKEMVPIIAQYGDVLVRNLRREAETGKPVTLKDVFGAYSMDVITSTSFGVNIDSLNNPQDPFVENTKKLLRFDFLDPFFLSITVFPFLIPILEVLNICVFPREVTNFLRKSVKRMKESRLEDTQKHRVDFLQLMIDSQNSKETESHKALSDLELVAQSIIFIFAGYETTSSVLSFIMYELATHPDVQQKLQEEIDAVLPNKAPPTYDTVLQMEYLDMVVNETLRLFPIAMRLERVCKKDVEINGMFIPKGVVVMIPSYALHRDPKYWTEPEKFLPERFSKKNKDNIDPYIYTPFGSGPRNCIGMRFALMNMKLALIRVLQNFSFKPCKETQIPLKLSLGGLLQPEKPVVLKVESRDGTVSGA

## CC#CC(=O)N1CCC[C@H]1c1nc(-c2ccc(C(=O)Nc3ccccn3)cc2)c2c(N)nccn12 [Formula (2), (S)-4-(8-amino-3-(1-(but-2-ynoyl)pyrrolidin-2-yl)imidazo[1,5-α]pyrazin-1-yl)-N-(pyridin-2-yl)benzamide]
[1]
  drug-drug interaction potential through CYP enzymes: very unlikely to cause clinical drug-drug interactions
[2]; 4 days CTL generation
  CD8+ T cell function as measured by % cytotoxicity: no effect
[2]
  CD8+ T cell function as measured by IFN-γ level: no effect
[3]
  immunosuppressive tumor associated MDSCs: significant reduction
  immunosuppressive tumor associated TAMs: significant reduction
  immunosuppressive tumor associated Tregs: significant reduction
  number of tumors: fewer overall tumors
  tumor volumes versus vehicle (microCT): significant decrease
[4]
  effect on rituximab-mediated ADCC, primary CLL / autologous tumor cells: not inhibited
[5]; [14]
  CD8+ cells in tumor tissues: significant increase
  immunosuppressive MDSCs (Gr1+Ly6CHi) in tumor tissues: significantly reduced
  immunosuppressive TAMs (CD11b+Ly6ClowF4/80+Csf1r+) in tumor tissues: significantly reduced
  immunosuppressive Tregs (CD4+CD25+FoxP3+) in tumor tissues: significantly reduced
  survival at day 14: 6/6
  survival at day 28: 5/6
[5]; Formula (2) 15 mg/kg BID orally (N=6), day 28
  tumor volume, day 28 average: 272 mm^3
[5]; cohort treated with Formula (2) 15 mg/kg BID orally (N=6), predose
  tumor volume, predose average: 165 mm^3
[6]
  inhibition of in vitro EGFR phosphorylation: no inhibition
[7]
  metabolism by CYPs: metabolized by CYP3A4
[8]
  inhibition of trastuzumab-stimulated NK cell cytokine release: no inhibitory effect
[9]; 1 μM, trastuzumab-coated (10 μg/mL) HER18, 4 hours
  inhibition of trastuzumab-stimulated NK cell degranulation: no inhibitory effect
[9]; rituximab-coated (10 μg/mL) DHL-4, 4 hours
  reduction of rituximab-stimulated NK cell degranulation: < 2%
[10]
  tumor burden: reduction in tumor burden
[11]
  activity in binding assays: significant activity only against the A3 adenosine receptor
[12]
  effect on CD8+ T cell viability: not observed; also recorded: no effect
[13]
  CD8+ T cells: increase
  immunosuppressive tumor associated Tregs: significant reduction
[13]; tumor-bearing mice
  B regulatory cells (Bregs): significant reduction
  immunosuppressive tumor associated lymphocytes: significant reduction
  total B cells: significant reduction
[13]; versus vehicle
  ID8 ovarian cancer growth: impairs
